Measurements: ChEMBL document CHEMBL3301458, “MMV Malaria Box hERG screening”
Active and inactive are the calls of the source. How the calls were made is not given here.

Columns and labels:
hERG (Kv11.1, KCNH2) [1] = biological target: T1, hERG (Kv11.1, KCNH2) (Homo sapiens, UniProt Q12809); test: in vitro
Description: MMV: Malaria Box compounds were tested for inhibition of the human ether a go-go related gene (hERG), Kv11.1 channel, using IonWorks 384-well patch clamp electrophysiology at 1.1uM (3 independent assay plates up to 12 cells per concentration).

hERG (Kv11.1, KCNH2) [2] = biological target: T1, hERG (Kv11.1, KCNH2); test: in vitro; remark: listed apart in the source
Description: MMV: Malaria Box compounds were tested for inhibition of the human ether a go-go related gene (hERG), Kv11.1 channel, using IonWorks 384-well patch clamp electrophysiology at 11.1uM (3 independent assay plates up to 12 cells per concentration).

T1 sequence (Q12809 whole entry): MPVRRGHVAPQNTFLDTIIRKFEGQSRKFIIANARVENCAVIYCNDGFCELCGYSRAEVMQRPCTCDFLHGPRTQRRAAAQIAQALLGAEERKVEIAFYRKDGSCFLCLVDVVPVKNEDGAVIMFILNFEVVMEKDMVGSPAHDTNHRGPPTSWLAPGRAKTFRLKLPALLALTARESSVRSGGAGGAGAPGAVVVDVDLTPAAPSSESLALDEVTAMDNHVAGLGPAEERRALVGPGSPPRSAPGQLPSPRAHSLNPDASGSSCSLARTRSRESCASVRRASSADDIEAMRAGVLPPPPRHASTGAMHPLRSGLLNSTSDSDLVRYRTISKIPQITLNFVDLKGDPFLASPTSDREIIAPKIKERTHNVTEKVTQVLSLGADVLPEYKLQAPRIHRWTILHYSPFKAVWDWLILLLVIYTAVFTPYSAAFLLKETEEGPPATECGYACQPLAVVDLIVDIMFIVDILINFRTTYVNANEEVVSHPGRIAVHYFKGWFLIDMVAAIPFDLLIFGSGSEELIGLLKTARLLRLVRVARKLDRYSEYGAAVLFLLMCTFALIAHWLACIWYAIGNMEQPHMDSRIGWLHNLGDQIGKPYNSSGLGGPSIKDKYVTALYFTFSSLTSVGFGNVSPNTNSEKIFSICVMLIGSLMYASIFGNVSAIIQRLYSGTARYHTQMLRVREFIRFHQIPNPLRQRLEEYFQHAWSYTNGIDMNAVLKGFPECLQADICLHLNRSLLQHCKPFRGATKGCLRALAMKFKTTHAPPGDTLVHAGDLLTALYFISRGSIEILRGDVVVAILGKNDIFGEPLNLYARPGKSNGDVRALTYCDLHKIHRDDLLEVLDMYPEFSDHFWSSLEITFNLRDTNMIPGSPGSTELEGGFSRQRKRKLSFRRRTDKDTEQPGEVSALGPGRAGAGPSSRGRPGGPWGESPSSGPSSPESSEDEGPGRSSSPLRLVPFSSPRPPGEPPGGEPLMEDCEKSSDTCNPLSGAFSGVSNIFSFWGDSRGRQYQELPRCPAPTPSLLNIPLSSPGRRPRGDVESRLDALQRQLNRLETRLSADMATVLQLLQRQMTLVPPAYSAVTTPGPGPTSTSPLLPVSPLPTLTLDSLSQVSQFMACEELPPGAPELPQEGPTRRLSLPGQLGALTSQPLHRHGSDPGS

Row | Compound | inhibition at 1.1 µM (hERG (Kv11.1, KCNH2) [1]) | inhibition at 11.1 µM (hERG (Kv11.1, KCNH2) [2])
1 | COc1ccc(-c2cc3c(nn2)-c2ccccc2C3=O)cc1 | -9% | -7% (inactive)
2 | Cc1ccc(-c2cc3c(nn2)-c2ccccc2C3=O)cc1 | 14% | 50% (active)
3 | O=C1c2ccccc2-c2nnc(-c3ccc(Br)cc3)cc21 | -3% | 2% (inactive)
4 | Oc1ccccc1CN1CCC2(CCCN(Cc3ccccc3F)C2)C1 (configuration not stated) | 1% | 59% (active)
5 | COc1cccc(O)c1CN1CCC2(CCCN(Cc3ccc(F)cc3)C2)C1 (configuration not stated) | 0% | 86% (active)
6 | CCOC(=O)C1=C(C)N=c2sc(=Cc3cc(Cl)ccc3O)c(=O)n2C1c1ccc(OC)cc1 (configuration not stated) | 2% | 2% (inactive)
7 | Cc1nc2ccccc2c(O)c1CC=C(Cl)Cl | -1% | -2% (inactive)
8 | FC(F)(F)c1ccc(Nc2nnnc3ccccc23)cc1 | -4% | -2% (inactive)
9 | CCC(C)NCC(O)(c1ccc(Cl)cc1)c1ccc(Cl)cc1 (configuration not stated) | 24% | 89% (active)
10 | Cc1ccc(N2C(=O)C3C(C2=O)C2(c4ccccc4)C(=O)C3(c3ccccc3)C(c3ccccc3)=C2c2ccccc2)cc1 (configuration not stated) | 10% | -3% (inactive)
11 | COc1ccc(CN2CCCC(C(=O)c3ccc(C(F)(F)F)cc3)C2)c(O)c1 (configuration not stated) | 58% | 100%
12 | CCOC(=O)c1cn(CC)c2cc(N(C)CCc3ccc(OC)c(OC)c3)c(F)cc2c1=O | 3% | 34%
13 | O=C(CCl)NCCOc1ccc(Cl)cc1Cl | 1% | 62% (active)
14 | CC(=O)c1ccc(NC(=O)CSc2nc(-c3ccccc3Cl)ns2)cc1 | -6% | 7% (inactive)
15 | O=C(NC1CCCCC1)C(c1cccs1)N(CCc1ccccc1)C(=O)c1ccco1 (configuration not stated) | 13% | 53% (active)
16 | COc1ccc(CCN2CCC(CN(C)Cc3cnn(-c4ccccc4)c3)CC2)cc1 | 41% | 99% (active)
17 | COc1ccc(C(=O)NC(c2ccc(Cl)cc2Cl)c2cc(Cl)c3cccnc3c2O)cc1 (configuration not stated) | -3% | -12% (inactive)
18 | O=C(NC(c1ccccc1)c1ccc2cccnc2c1O)c1ccccc1 (configuration not stated) | 1% | 17% (inactive)
19 | COCCNC(=O)c1ccc(OC2CCN(Cc3ccc(F)c(F)c3)CC2)c(Cl)c1 | 7% | 68% (active)
20 | COc1ccc(C2=C(c3ccc(OC)cc3)C3(c4ccccc4)C(=O)C2(c2ccccc2)C2C(=O)N(c4ccc(C)cc4)C(=O)C23)cc1 (configuration not stated) | -8% | 6% (inactive)
21 | O=C(NC1CCCC1)c1ccc(N2CCC(NCc3cccc(C(F)(F)F)c3)CC2)cc1 | 76% | 101%

Row | Compound | inhibition at 1.1 µM (hERG (Kv11.1, KCNH2) [1]) | inhibition at 11.1 µM (hERG (Kv11.1, KCNH2) [2])
22 | CC(C)=CCN1CCC(C(=O)Nc2ccc(-c3nc4ccccc4[nH]3)cc2)CC1 | 0% | 29%
23 | O=C(CCc1ccco1)NC1CCN(CC2(c3ccc(Cl)cc3)CCC2)CC1 | 10% | 65% (active)
24 | Nc1ccc(-c2nc3cc(Cc4ccc5[nH]c(-c6ccc(N)cc6)nc5c4)ccc3[nH]2)cc1 | 12% | 21% (inactive)
25 | COc1ccc(CNC2CCN(c3ccc(NC(=O)c4cccc(Cl)c4)cc3)CC2)cc1OC | 84% | 102%
26 | COCCN(C(=O)Cc1cccs1)C(C(=O)NCc1ccc(OC)cc1)c1ccc(C(C)C)cc1 (configuration not stated) | 11% | 52% (active)
27 | N=c1c2ccccc2nnn1-c1cccc(C(F)(F)F)c1 | -3% | 11% (inactive)
28 | Cc1ccc(OCCCCCCNCCO)c(C)c1 | -6% | 21% (inactive)
29 | FC(F)(F)c1cccc(CNC2CCN(CCc3ccccc3)CC2)c1 | 4% | 97% (active)
30 | OC(Cn1nnc2ccccc21)Cn1c2ccc(Br)cc2c2cc(Br)ccc21 (configuration not stated) | 21% | 17% (inactive)
31 | CN(C)c1ccc(-c2nc3cc(N)ccc3[nH]2)cc1 | 14% | 36%
32 | Cc1ccc2cc3c(N)c4c(C)ccc(C)c4nc3nc2c1 | 16% | 60% (active)
33 | CCCCNCC(O)(c1ccc(Cl)cc1)c1ccc(Cl)cc1 | 30% | 95% (active)
34 | CCCC(c1nnnn1C1CCCCC1)N1CCN(C(=O)c2ccco2)CC1 (configuration not stated) | 3% | 52% (active)
35 | Cc1ccc(CN2CCC(C(=O)Nc3ccc(-c4cc5ccccc5[nH]4)cc3)CC2)o1 | 9% | 88% (active)
36 | CCn1c(SCC(=O)Nc2cc(C(F)(F)F)ccc2Cl)nc2ccccc2c1=O | -1% | 34%
37 | O=C(Nc1ccsc1C(=O)NC1CCCCC1)c1ccc(F)cc1 | -3% | 3% (inactive)
38 | O=C(Nc1ccc(Cl)cc1C(=O)Nc1ccncc1)c1ccc(Cl)cc1Cl | 4% | 39%
39 | CC(C)(C)c1ccc(C(=O)Nc2c3c(nn2-c2cccc(Cl)c2)CSC3)cc1 | 4% | 0% (inactive)
40 | COc1ccc(C2N(C)c3ccccc3N2C)cc1 | -13% | -5% (inactive)
41 | COc1cccc(C(=O)NC(c2ccc(C)cc2)c2cc(Cl)c3cccnc3c2O)c1 (configuration not stated) | 4% | -6% (inactive)
42 | CCOc1ccc(/C=C/c2nc(=O)c3ccccc3o2)cc1 | 1% | 19% (inactive)

Row | Compound | inhibition at 1.1 µM (hERG (Kv11.1, KCNH2) [1]) | inhibition at 11.1 µM (hERG (Kv11.1, KCNH2) [2])
43 | O=C(Nc1ccccc1O)c1ccc(-c2ccc(Cl)cc2Cl)o1 | 1% | 3% (inactive)
44 | O=C(Nc1ccc(F)c(Cl)c1)Nc1ccc(Cl)c(Cl)c1 | -11% | -3% (inactive)
45 | CCOC(=O)C1(Cc2ccccc2)CCN(Cc2cccc(OC)c2O)CC1 | 18% | 80% (active)
46 | O=C(Cc1ccccc1)NC(c1ccc(Cl)cc1)c1c(O)ccc2ccccc12 (configuration not stated) | -2% | -1% (inactive)
47 | Oc1ccc(C(=C(Cl)Cl)c2ccc(O)cc2)cc1 | 7% | 15% (inactive)
48 | COc1ccc(C(=O)NC(c2ccccc2Cl)c2cc(Cl)c3cccnc3c2O)cc1 (configuration not stated) | 9% | 7% (inactive)
49 | COc1ccc(CN2CCN(Cc3ccccc3)CC2)c(O)c1 | 15% | 66% (active)
50 | CCCCCCc1cc(O)c2c3c(c(=O)oc2c1)CCC(C)C3 (configuration not stated) | -5% | -7% (inactive)
51 | CCCc1c(C)nc2ccc(Br)cc2c1O | 1% | 2% (inactive)
52 | CCCc1c(C)nc2ccccc2c1O | -17% | 7% (inactive)
53 | CC1=C(CC(=O)c2cccc([N+](=O)[O-])c2)C(=O)c2ccccc2C1=O | 9% | 17% (inactive)
54 | OC1CCCCC1C1(NC(=S)Nc2ccccc2)CCCCC1 (configuration not stated) | 26% | 51% (active)
55 | COc1ccc(C(=O)C2CC2c2ccc(Cl)cc2)cc1 (configuration not stated) | -6% | 13% (inactive)
56 | CCN(CC)CCCNc1nc(-c2ccc(Cl)cc2)nc2ccccc12 | 8% | 94% (active)
57 | CN1c2ccccc2N(C)C1c1ccc2c(c1)OCO2 | -1% | 17% (inactive)
58 | O=C(NCC1Cc2cccc(-c3ccncc3)c2O1)c1csc2c1CCCC2 (configuration not stated) | 13% | 61% (active)
59 | c1ccc(Cn2c(N=Nc3c(Nc4ccccc4)ccc4ccccc34)nc3ccccc32)cc1 | -2% | -2% (inactive)
60 | C=C(C)CCC(C)N1CCC(N2CCC(C(=O)NCCc3ccccc3)CC2)CC1 (configuration not stated) | 8% | 71% (active)
61 | Cc1ccc(S(=O)(=O)c2c(COC(=O)c3cccc(C)c3)c(-c3ccccc3)nn2C)cc1 | 4% | 12% (inactive)
